What was measured:
Type in all cases: toxicity, cell-based
Fibroblast = assay: Incucyte cell viability with human fibroblast; settings: 10 µM, compound concentration 10 uM
HEK-293T = assay: Incucyte cell viability with HEK293T; settings: human, 10 µM, compound concentration 10 uM
U2OS = assay: Incucyte cell viability with U2OS; settings: human, 10 µM, compound concentration 10 uM
Further: unitless GR value; below 1 slowed growth and below 0 cell loss.

| SMILES | Growth Rate (Fibroblast; 6 h, replicate number 2) | Growth Rate (Fibroblast; 12 h, replicate number 2) | Growth Rate (Fibroblast; 18 h, replicate number 1) | Growth Rate (Fibroblast; 18 h, replicate number 2) | Growth Rate (Fibroblast; 24 h, replicate number 1) | Growth Rate (Fibroblast; 24 h, replicate number 2) | Growth Rate (HEK-293T; 6 h, replicate number 1) | Growth Rate (HEK-293T; 6 h, replicate number 2) | Growth Rate (HEK-293T; 12 h, replicate number 1) | Growth Rate (HEK-293T; 12 h, replicate number 2) | Growth Rate (HEK-293T; 18 h, replicate number 1) | Growth Rate (HEK-293T; 18 h, replicate number 2) | Growth Rate (HEK-293T; 24 h, replicate number 1) | Growth Rate (HEK-293T; 24 h, replicate number 2) | Growth Rate (U2OS; 6 h, replicate number 1) | Growth Rate (U2OS; 12 h, replicate number 1) | Growth Rate (U2OS; 12 h, replicate number 2) | Growth Rate (U2OS; 18 h, replicate number 1) | Growth Rate (U2OS; 24 h, replicate number 1) | Growth Rate (U2OS; 24 h, replicate number 2) | further results |
| --- | --- | --- | --- | --- | --- | --- | --- | --- | --- | --- | --- | --- | --- | --- | --- | --- | --- | --- | --- | --- | --- |
| O=C(NC1CCNCC1)c1n[nH]cc1NC(=O)c1c(Cl)cccc1Cl [AT-7519] | 0.01 | -0.1 | 0.17 | -0.23 | 0.08 | -0.17 | -0.3 | -0.74 | -0.27 | -0.63 | -0.2 | -0.51 | -0.15 | -0.4 | 0.44 | 0.18 | 0.4 | 0.05 | -0.08 | 0.03 | Growth Rate (Fibroblast; 0 h, replicate number 1): -1; Growth Rate (Fibroblast; 0 h, replicate number 2): -0.43; Growth Rate (Fibroblast; 6 h, replicate number 1): 0.78; Growth Rate (Fibroblast; 12 h, replicate number 1): 0.38; Growth Rate (HEK-293T; 0 h, replicate number 1): -0.17; Growth Rate (U2OS; 6 h, replicate number 2): 0.71 |
| O=C(Nc1c[nH]nc1-c1nc2cc(CN3CCOCC3)ccc2[nH]1)NC1CC1 [AT-9283] |  |  | 0.66 | 0.81 | 0.09 | 0.43 | -0.72 | -0.8 | -0.57 | -0.59 | -0.46 | -0.43 | -0.38 | -0.3 |  | 0.31 | 0.78 | -0.05 | -0.18 | -0.09 | Growth Rate (U2OS; 0 h, replicate number 1): -1; Growth Rate (U2OS; 0 h, replicate number 2): 0.73; Growth Rate (U2OS; 18 h, replicate number 2): 0.14 |
| COc1cc(F)ccc1-c1ncnc(Nc2cccc(C[S@](C)(=N)=O)c2)n1 [ATUVECICLIB] | -0.07 | -0.33 | -0.01 | -0.2 | 0.09 | -0.14 | -0.48 | -0.61 | -0.37 | -0.56 | -0.26 | -0.44 | -0.25 | -0.36 | 0.72 | 0.33 | 0.18 | 0.11 | 0.03 | -0.05 | Growth Rate (Fibroblast; 0 h, replicate number 1): -0.58; Growth Rate (Fibroblast; 6 h, replicate number 1): -0.11; Growth Rate (Fibroblast; 12 h, replicate number 1): -0.04; Growth Rate (U2OS; 0 h, replicate number 2): 0.53; Growth Rate (U2OS; 6 h, replicate number 2): 0.22; Growth Rate (U2OS; 18 h, replicate number 2): 0.07 |
| Cc1[nH]nc(C(F)(F)F)c1Cc1sc2c(c1C(=O)N1C[C@](C)(O)CO1)c(=O)n(C)c(=O)n2C(C)C [AZD3965] |  | 0.69 |  | 0.97 | 0.9 | 0.8 |  |  | 0.53 | 0.43 | 0.17 | 0.22 | 0.11 | 0.21 |  | 0.92 | 0.71 |  | 0.75 | 0.83 | Growth Rate (Fibroblast; 6 h, replicate number 1): 0.95; Growth Rate (HEK-293T; 0 h, replicate number 1): -0.63; Growth Rate (HEK-293T; 0 h, replicate number 2): -0.81; Growth Rate (U2OS; 18 h, replicate number 2): 0.69 |
| Cc1cc2ncnn2cc1Nc1ncc2c(n1)n(C1CCOCC1)c(=O)n2C [AZD-7648] |  |  |  | 0.83 |  | 0.93 | 0.34 | 0.98 | 0.78 | 0.76 | 0.87 | 0.95 | 0.93 |  |  |  |  |  | 0.9 |  | Growth Rate (Fibroblast; 0 h, replicate number 2): 0.27; Growth Rate (U2OS; 0 h, replicate number 1): 0.4 |
| C[C@@H]1Cc2c([nH]c3ccccc23)[C@@H](c2c(F)cc(/C=C/C(=O)O)cc2F)N1CC(C)(C)F [AZD-9496] | -0.38 | 0.62 |  | 0.88 |  | 0.65 |  |  |  |  |  |  |  |  | 0.39 | 0.94 |  | 0.92 | 0.91 |  | Growth Rate (HEK-293T; 0 h, replicate number 1): -0.59; Growth Rate (HEK-293T; 0 h, replicate number 2): -0.31; Growth Rate (U2OS; 0 h, replicate number 1): 0.01 |
| Cc1onc(-c2ccc(F)cc2)c1COc1ccc(C(=O)N2CCS(=O)(=O)CC2)cn1 [BASMISANIL] | -0.92 | 0.69 | -0.07 |  |  |  |  | 0.2 |  | 0.86 |  | 0.92 | 0.97 | 0.94 | 0.73 | 0.73 | 0.8 | 0.87 | 0.86 | 0.82 | Growth Rate (Fibroblast; 0 h, replicate number 2): -0.96; Growth Rate (Fibroblast; 12 h, replicate number 1): -1; Growth Rate (U2OS; 6 h, replicate number 2): 0.62; Growth Rate (U2OS; 18 h, replicate number 2): 0.98 |

Source: ChEMBL document CHEMBL5303304, “EUbOPEN Chemogenomics Library - IncuCyte” (2023)
